Assay results: the NIST ThermoML archive (doi:10.1021/je034017j)
Numbers after ± are expanded uncertainties.

What was measured:
[1] = xn = mol fraction of the nth substance listed; conditions: 101 kPa, Liquid
[2] = Liquid; for viscosity: 101.33 kPa; for mass density: 101 kPa

## CCCCCCC(=O)OC [methyl heptanoate] + CCCCCCO
[1]; 293.15 K, x1 = 0.0702
  kinematic viscosity: 5.11e-06 ± 5.7e-08 m2/s
  mass density: 824.02 ± 0.3 kg/m3
[1]; 293.15 K, x1 = 0.1168
  kinematic viscosity: 4.4e-06 ± 5e-08 m2/s
  mass density: 827.4 ± 0.3 kg/m3
[1]; 293.15 K, x1 = 0.189
  kinematic viscosity: 3.59e-06 ± 4.1e-08 m2/s
  mass density: 832.46 ± 0.31 kg/m3
[1]; 293.15 K, x1 = 0.3018
  kinematic viscosity: 2.76e-06 ± 3.2e-08 m2/s
  mass density: 840.04 ± 0.32 kg/m3
[1]; 293.15 K, x1 = 0.3966
  kinematic viscosity: 2.31e-06 ± 2.7e-08 m2/s
  mass density: 846.13 ± 0.33 kg/m3
[1]; 293.15 K, x1 = 0.4898
  kinematic viscosity: 1.99e-06 ± 2.4e-08 m2/s
  mass density: 851.87 ± 0.35 kg/m3
[1]; 293.15 K, x1 = 0.594
  kinematic viscosity: 1.74e-06 ± 2.1e-08 m2/s
  mass density: 858.04 ± 0.36 kg/m3
[1]; 293.15 K, x1 = 0.7085
  kinematic viscosity: 1.52e-06 ± 1.9e-08 m2/s
  mass density: 864.51 ± 0.38 kg/m3
[1]; 293.15 K, x1 = 0.7917
  kinematic viscosity: 1.42e-06 ± 1.8e-08 m2/s
  mass density: 869.04 ± 0.39 kg/m3
[1]; 293.15 K, x1 = 0.8937
  kinematic viscosity: 1.32e-06 ± 1.7e-08 m2/s
  mass density: 874.45 ± 0.41 kg/m3
[1]; 293.15 K, x1 = 0.937
  kinematic viscosity: 1.29e-06 ± 1.6e-08 m2/s
  mass density: 876.69 ± 0.42 kg/m3
[1]; 293.15 K, x1 = 1
  kinematic viscosity: 1.26e-06 ± 1.6e-08 m2/s
  mass density: 879.96 ± 0.43 kg/m3
[1]; 303.15 K, x1 = 0.0753
  kinematic viscosity: 3.81e-06 ± 4.3e-08 m2/s
  mass density: 816.9 ± 0.3 kg/m3
[1]; 303.15 K, x1 = 0.12
  kinematic viscosity: 3.35e-06 ± 3.8e-08 m2/s
  mass density: 819.99 ± 0.3 kg/m3
[1]; 303.15 K, x1 = 0.1919
  kinematic viscosity: 2.79e-06 ± 3.2e-08 m2/s
  mass density: 824.84 ± 0.31 kg/m3
[1]; 303.15 K, x1 = 0.2963
  kinematic viscosity: 2.24e-06 ± 2.7e-08 m2/s
  mass density: 831.61 ± 0.32 kg/m3
[1]; 303.15 K, x1 = 0.4003
  kinematic viscosity: 1.87e-06 ± 2.3e-08 m2/s
  mass density: 838.05 ± 0.34 kg/m3
[1]; 303.15 K, x1 = 0.4934
  kinematic viscosity: 1.64e-06 ± 2e-08 m2/s
  mass density: 843.6 ± 0.35 kg/m3
[1]; 303.15 K, x1 = 0.5979
  kinematic viscosity: 1.45e-06 ± 1.8e-08 m2/s
  mass density: 849.6 ± 0.36 kg/m3
[1]; 303.15 K, x1 = 0.6849
  kinematic viscosity: 1.32e-06 ± 1.7e-08 m2/s
  mass density: 854.38 ± 0.38 kg/m3
[1]; 303.15 K, x1 = 0.8004
  kinematic viscosity: 1.2e-06 ± 1.5e-08 m2/s
  mass density: 860.53 ± 0.39 kg/m3
[1]; 303.15 K, x1 = 0.8676
  kinematic viscosity: 1.15e-06 ± 1.5e-08 m2/s
  mass density: 864 ± 0.41 kg/m3
[1]; 303.15 K, x1 = 0.9415
  kinematic viscosity: 1.11e-06 ± 1.4e-08 m2/s
  mass density: 867.77 ± 0.42 kg/m3
[1]; 303.15 K, x1 = 1
  kinematic viscosity: 1.09e-06 ± 1.4e-08 m2/s
  mass density: 870.73 ± 0.43 kg/m3
[1]; 313.15 K, x1 = 0.064
  kinematic viscosity: 3.05e-06 ± 3.5e-08 m2/s
  mass density: 808.63 ± 0.3 kg/m3
[1]; 313.15 K, x1 = 0.1198
  kinematic viscosity: 2.62e-06 ± 3e-08 m2/s
  mass density: 812.36 ± 0.31 kg/m3
[1]; 313.15 K, x1 = 0.1968
  kinematic viscosity: 2.21e-06 ± 2.6e-08 m2/s
  mass density: 817.35 ± 0.31 kg/m3
[1]; 313.15 K, x1 = 0.2986
  kinematic viscosity: 1.83e-06 ± 2.2e-08 m2/s
  mass density: 823.7 ± 0.33 kg/m3
[1]; 313.15 K, x1 = 0.3995
  kinematic viscosity: 1.56e-06 ± 1.9e-08 m2/s
  mass density: 829.76 ± 0.34 kg/m3
[1]; 313.15 K, x1 = 0.5299
  kinematic viscosity: 1.32e-06 ± 1.6e-08 m2/s
  mass density: 837.23 ± 0.36 kg/m3
[1]; 313.15 K, x1 = 0.6009
  kinematic viscosity: 1.22e-06 ± 1.5e-08 m2/s
  mass density: 841.13 ± 0.36 kg/m3
[1]; 313.15 K, x1 = 0.6925
  kinematic viscosity: 1.12e-06 ± 1.4e-08 m2/s
  mass density: 846.03 ± 0.38 kg/m3
[1]; 313.15 K, x1 = 0.8022
  kinematic viscosity: 1.04e-06 ± 1.3e-08 m2/s
  mass density: 851.72 ± 0.4 kg/m3
[1]; 313.15 K, x1 = 0.872
  kinematic viscosity: 9.99e-07 ± 1.3e-08 m2/s
  mass density: 855.24 ± 0.41 kg/m3
[1]; 313.15 K, x1 = 0.9368
  kinematic viscosity: 9.78e-07 ± 1.3e-08 m2/s
  mass density: 858.5 ± 0.42 kg/m3
[1]; 313.15 K, x1 = 1
  kinematic viscosity: 9.55e-07 ± 1.3e-08 m2/s
  mass density: 861.65 ± 0.43 kg/m3

## CCCCCCC(=O)OC [methyl heptanoate]
[2]; 283.15 K
  viscosity: 1.32 ± 0.017 mPa·s
[2]; 293.15 K
  mass density: 879.96 ± 0.43 kg/m3
  viscosity: 1.112 ± 0.014 mPa·s
[2]; 298.15 K
  viscosity: 1.023 ± 0.013 mPa·s
[2]; 303.15 K
  mass density: 870.73 ± 0.43 kg/m3
  viscosity: 0.95 ± 0.013 mPa·s
[2]; 313.15 K
  mass density: 861.65 ± 0.43 kg/m3
  viscosity: 0.823 ± 0.011 mPa·s

## CCCCCCO [hexan-1-ol] + CCCCC(=O)OC
[1]; 293.15 K, Capillary tube (Ostwald / Ubbelohde) method, x2 = 0
  kinematic viscosity: 6.609e-06 ± 4.4e-08 m2/s
[1]; 293.15 K, x2 = 0
  mass density: 818.84 ± 0.29 kg/m3
[1]; 303.15 K, Capillary tube (Ostwald / Ubbelohde) method, x2 = 0
  kinematic viscosity: 4.885e-06 ± 3.3e-08 m2/s
[1]; 303.15 K, x2 = 0
  mass density: 811.56 ± 0.29 kg/m3
[1]; 313.15 K, Capillary tube (Ostwald / Ubbelohde) method, x2 = 0
  kinematic viscosity: 3.688e-06 ± 2.5e-08 m2/s
[1]; 313.15 K, x2 = 0
  mass density: 804.28 ± 0.3 kg/m3

## CCCCCCO [hexan-1-ol] + CCCCCCC(=O)OC
[1]; 293.15 K, x2 = 0
  kinematic viscosity: 6.61e-06 ± 6.9e-08 m2/s
  mass density: 818.84 ± 0.29 kg/m3
[1]; 303.15 K, x2 = 0
  kinematic viscosity: 4.88e-06 ± 5.4e-08 m2/s
  mass density: 811.56 ± 0.29 kg/m3
[1]; 313.15 K, x2 = 0
  kinematic viscosity: 3.69e-06 ± 4.2e-08 m2/s
  mass density: 804.28 ± 0.3 kg/m3

## CCCCCCO [hexan-1-ol]
[2]; 293.15 K
  mass density: 818.84 ± 0.29 kg/m3
  viscosity: 5.412 ± 0.059 mPa·s
[2]; 298.15 K
  viscosity: 4.596 ± 0.051 mPa·s
[2]; 303.15 K
  mass density: 811.56 ± 0.29 kg/m3
  viscosity: 3.964 ± 0.045 mPa·s
[2]; 313.15 K
  mass density: 804.28 ± 0.3 kg/m3
  viscosity: 2.966 ± 0.034 mPa·s

## CCCCCCCC [octane] + CCCCCCO
[1]; 293.15 K, x1 = 1
  kinematic viscosity: 7.71e-07 ± 1e-08 m2/s
  mass density: 702.54 ± 0.3 kg/m3
[1]; 303.15 K, x1 = 1
  kinematic viscosity: 6.96e-07 ± 9e-09 m2/s
  mass density: 694.35 ± 0.31 kg/m3
[1]; 313.15 K, x1 = 1
  kinematic viscosity: 6.27e-07 ± 8e-09 m2/s
  mass density: 686.12 ± 0.32 kg/m3

## CCCCC(=O)OC [methyl pentanoate]
[2]; 283.15 K
  viscosity: 0.816 ± 0.011 mPa·s
[2]; 293.15 K
  mass density: 889.75 ± 0.47 kg/m3
  viscosity: 0.712 ± 0.01 mPa·s
[2]; 298.15 K
  viscosity: 0.661 ± 0.009 mPa·s
[2]; 303.15 K
  mass density: 879.51 ± 0.47 kg/m3
  viscosity: 0.623 ± 0.009 mPa·s
[2]; 313.15 K
  mass density: 869.32 ± 0.47 kg/m3
  viscosity: 0.551 ± 0.008 mPa·s

## CCCCCCCC [octane]
[2]; 283.15 K
  viscosity: 0.614 ± 0.008 mPa·s
[2]; 293.15 K
  mass density: 702.54 ± 0.3 kg/m3
  viscosity: 0.542 ± 0.007 mPa·s
[2]; 298.15 K
  viscosity: 0.508 ± 0.007 mPa·s
[2]; 303.15 K
  mass density: 694.35 ± 0.31 kg/m3
  viscosity: 0.483 ± 0.007 mPa·s
[2]; 313.15 K
  mass density: 686.12 ± 0.32 kg/m3
  viscosity: 0.43 ± 0.006 mPa·s
